From the supplement of paper PMC11061612

How the values were obtained:
[1] = system: KARPAS-231 (B-Cell Non-Hodgkin's Lymphoma); experiment: combination Emax (second highest fraction inhibited in the dose matrix, 72 h); higher = more inhibition; extreme values may be limits of the assay
In short: (§1)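 Cell lines grown in DMEM/F12 or RPMI with 10% FBS were plated in 1536-well plates and held 24 hours at 37°C, 5% CO2 before 72 hours of exposure to two-drug dose matrices, with DMSO typically at 0.2%. CellTiter-Glo 2.0 luminescence gave viability, which was converted to inhibition. Vehicle wells were set to 0 and blank wells to 1. Combination Emax is the second-highest inhibition in the matrix, and Bliss excess is the observed combination effect minus the expected EA + EB − EA·EB, where EA and EB are the single-agent effects.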

[2] = system: SW1116 (Colorectal Carcinoma); experiment: as above
In short: as §1

Mewo (Melanoma) = experiment: as above
In short: as §1

[3] = system: CAPAN-1 (Pancreatic Carcinoma); experiment: as above
In short: as §1

NB14 (Neuroblastoma) = experiment: Bliss excess, mean over the matrix (fraction); higher = more synergy
In short: as §1

[4] = system: RKO (Colorectal Carcinoma); experiment: as above
In short: as §1

[5] = system: TE-4 (Esophageal Squamous Cell Carcinoma); experiment: as above
In short: as §1

COLO-829 (Melanoma) = experiment: as above
In short: as §1

[6] = system: RT-112 (Bladder Carcinoma); experiment: as above
In short: as §1

[7] = system: K5 (Thyroid Gland Carcinoma); experiment: as above
In short: as §1

[8] = system: SUP-T1 (T-Lymphoblastic Leukemia); experiment: as above
In short: as §1

[9] = system: SW1271 (Small Cell Lung Carcinoma); experiment: as above
In short: as §1

[10] = system: SW626 (Colorectal Carcinoma); experiment: as above
In short: as §1

[11] = system: NCI-H69 (Small Cell Lung Carcinoma); experiment: as above
In short: as §1

NCI-H2795 (Mesothelioma) = experiment: as above
In short: as §1

[12] = system: OC-314 (Ovarian Carcinoma); experiment: as above
In short: as §1

[13] = system: CAPAN-1 (Pancreatic Carcinoma); experiment: as above
In short: as §1

[14] = system: MHH-PREB-1 (B-Cell Non-Hodgkin's Lymphoma); experiment: as above
In short: as §1

[15] = system: HDLM-2 (Hodgkin's Lymphoma); experiment: as above
In short: as §1

[16] = system: LU-139 (Small Cell Lung Carcinoma); experiment: as above
In short: as §1
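For Bliss excess, mean over the matrix in this document: after 72 h of two-drug dosing.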

Row | Structure (SMILES) | combination Emax [1] | combination Emax [2] | combination Emax (Mewo (Melanoma)) | combination Emax [3] | Bliss excess (NB14 (Neuroblastoma)) | Bliss excess [4] | Bliss excess [5] | Bliss excess (COLO-829 (Melanoma)) | Bliss excess [6] | Bliss excess [7] | Bliss excess [8] | Bliss excess [9] | Bliss excess [10] | Bliss excess [11] | Bliss excess (NCI-H2795 (Mesothelioma)) | Bliss excess [12] | Bliss excess [13] | Bliss excess [14] | Bliss excess [15] | Bliss excess [16]
1 | Cc1cc2ncnn2cc1Nc1ncc2c(n1)n(C1CCOCC1)c(=O)n2C [AZD7648] + C=CCn1c(=O)c2cnc(Nc3ccc(N4CCN(C)CC4)cc3)nc2n1-c1cccc(C(C)(C)O)n1 [AZD1775] (first compound max 10 µM, partner max 1 µM) | 0.979 | 0.295 | 0.427 | 0.5 | 0.0014 | -0.032 | -0.079 | -0.0047 | 0.0239 | 0.0433 | 0.0169 | -0.0199 | 0.0341 | -0.118 | 0.056 | 0.0579 | 0.0049 | 0.028 | -0.0387 | -0.0642
2 | C=CCn1c(=O)c2cnc(Nc3ccc(N4CCN(C)CC4)cc3)nc2n1-c1cccc(C(C)(C)O)n1 [AZD1775] + C[C@@H]1COCCN1C2=NC(=NC(=C2)C3(CC3)[S@](=N)(=O)C)C4=C5C=CNC5=NC=C4 [AZD6738] (first compound max 1 µM, partner max 10 µM) | 0.98 | 0.506 | 0.71 | 0.49 | 0.0462 | 0.0529 | 0.0485 | -0.0194 | 0.0578 | -0.0453 | -0.0352 | -0.0474 | 0.0354 | 0.0962 | -0.0134 | 0.0937 | -0.0951 | 0.0075 | -0.0511 | -0.0149
3 | COc1nnc2ccc(N3CCC(c4ccc(OCCN5CCN(C)C(=O)[C@H]5C)cc4)CC3)nn12 [AZD5153] + CC1(C)CCC(CN2CCN(c3ccc(C(=O)NS(=O)(=O)c4ccc(NCC5CCOCC5)c([N+](=O)[O-])c4)c(Oc4cnc5[nH]ccc5c4)c3)CC2)=C(c2ccc(Cl)cc2)C1 [Venetoclax] (first compound max 1 µM, 7x7, partner max 1 µM) | 1 | 0.353 | 0.563 | 0.335 | -0.0109 | 0.0122 | -0.0291 | -0.0356 | -0.0479 | -0.049 | -0.0766 | -0.108 | -0.0676 | -0.0445 | -0.041 | -0.0149 | -0.0874 | -0.055 | -0.0645 | 0.0391
4 | COc1nnc2ccc(N3CCC(c4ccc(OCCN5CCN(C)C(=O)[C@H]5C)cc4)CC3)nn12 [AZD5153] + CCN(CCO)CCCOc1ccc2c(Nc3cc(CC(=O)Nc4cccc(F)c4)[nH]n3)ncnc2c1 [AZD2811] (first compound max 1 µM, 7x7, partner max 1 µM) | 0.514 | 0.397 | 0.593 | 0.353 | -0.0546 | -0.0096 | -0.0116 | -0.0173 | -0.0595 | -0.0485 | 0.0027 | -0.0234 | -0.0348 | 0.0048 | -0.0807 | -0.04 | -0.08 | 0.0074 | 0.0003 | 0.0203
5 | CN(CCO)CC[C@H](CSc1ccccc1)Nc1ccc(S(=O)(=O)NC(=O)c2ccc(N3CCC([C@@H](O)c4ccccc4-c4ccc(Cl)cc4)CC3)cc2)cc1S(=O)(=O)C(F)(F)F [AZD4320] + CN(C)CCCOc1ccc(-c2ccc3ncc4c(c3c2)n(C2CCOCC2)c(=O)n4C)cn1 [AZD0156] (first compound max 1 µM, 7x7, partner max 1 µM) | 0.997 | 0.191 | 0.147 | 0.145 | 0.061 | -0.0253 | -0.0285 | -0.0481 | -0.0274 | -0.0779 | -0.0333 | -0.0413 | -0.0545 | -0.0465 | -0.0596 | -0.0231 | -0.0654 | 0.0075 | -0.0667 | -0.0164
6 | Cc1c2c(nn1C)CSCc1cc(n(C)n1)CSc1cc(c3ccccc3c1)OCCCc1c(C(=O)O)n(C)c3c-2c(Cl)ccc13 [AZD5991] + Cn1cnc2c(F)c(Nc3ccc(Br)cc3Cl)c(C(=O)NOCCO)cc21 [Selumetinib] (first compound max 1 µM, 7x7, partner max 3 µM) | 1 | 0.446 | 0.475 | 0.381 | 0.0392 | 0.0143 | 0.0329 | 0.0295 | 0.102 | -0.0216 | -0.0246 | -0.0287 | 0.0233 | -0.065 | 0.0278 | -0.0313 | -0.0269 | 0.0113 | -0.0477 | -0.0283
7 | CC1(C)CCC(CN2CCN(c3ccc(C(=O)NS(=O)(=O)c4ccc(NCC5CCOCC5)c([N+](=O)[O-])c4)c(Oc4cnc5[nH]ccc5c4)c3)CC2)=C(c2ccc(Cl)cc2)C1 [Venetoclax] + CN(C)CCCOc1ccc(-c2ccc3ncc4c(c3c2)n(C2CCOCC2)c(=O)n4C)cn1 [AZD0156] (first compound max 1 µM, 7x7, partner max 1 µM) | 0.816 | 0.103 | 0.547 | 0.184 | -0.0017 | 0.0566 | -0.0191 | -0.0264 | -0.0232 | -0.0635 | -0.0294 | -0.0283 | -0.0381 | 0.002 | 0.0332 | 0.008 | -0.0696 | 0.0029 | -0.0015 | 0.0014
8 | COc1nnc2ccc(N3CCC(c4ccc(OCCN5CCN(C)C(=O)[C@H]5C)cc4)CC3)nn12 [AZD5153] + Cn1cnc2c(F)c(Nc3ccc(Br)cc3Cl)c(C(=O)NOCCO)cc21 [Selumetinib] (first compound max 1 µM, 7x7, partner max 10 µM) | 0 | 0.699 | 0.663 | 0.664 | -0.0325 | 0.0263 | 0.0311 | -0.0086 | 0.0423 | -0.0937 | -0.052 | -0.0034 | -0.005 | -0.0503 | -0.03 | -0.064 | -0.0226 | -0.0323 | -0.0407 | 0.0169
9 | C[C@@H]1COCCN1c1cc(C2([S@](C)(=N)=O)CC2)nc(-c2ccnc3[nH]ccc23)n1 [AZD6738] + O=C(c1cc(Cc2n[nH]c(=O)c3ccccc23)ccc1F)N1CCN(C(=O)C2CC2)CC1 [Olaparib] (first compound max 10 µM, 7x7, partner max 10 µM) | 0.723 | 0.262 | 0.548 | 0.442 | -0.0072 | 0.0101 | 0.0082 | -0.0067 | -0.0643 | -0.0175 | -0.0289 | -0.016 | -0.0022 | -0.0283 | 0.053 | 0.0247 | -0.0125 | -0.0405 | -0.0437 | 0.0115
10 | CC1(C)CCC(CN2CCN(c3ccc(C(=O)NS(=O)(=O)c4ccc(NCC5CCOCC5)c([N+](=O)[O-])c4)c(Oc4cnc5[nH]ccc5c4)c3)CC2)=C(c2ccc(Cl)cc2)C1 [Venetoclax] + C[C@@H]1COCCN1C2=NC(=NC(=C2)C3(CC3)[S@](=N)(=O)C)C4=C5C=CNC5=NC=C4 [AZD6738] (first compound max 1 µM, 7x7, partner max 10 µM) | 1 | 0.329 | 0.556 | 0.416 | -0.0005 | -0.0796 | -0.0337 | 0.0059 | 0.0228 | -0.0758 | -0.0098 | -0.0497 | -0.0492 | -0.0494 | -0.0578 | -0.003 | -0.0674 | 0.0046 | 0.0068 | -0.0111
11 | Cc1c2c(nn1C)CSCc1cc(n(C)n1)CSc1cc(c3ccccc3c1)OCCCc1c(C(=O)O)n(C)c3c-2c(Cl)ccc13 [AZD5991] + CN(C)CCCOc1ccc(-c2ccc3ncc4c(c3c2)n(C2CCOCC2)c(=O)n4C)cn1 [AZD0156] (first compound max 1 µM, 7x7, partner max 1 µM) | 1 | 0.173 | 0.225 | 0.252 | 0.0091 | 0.0041 | 0.0186 | -0.0492 | -0.0217 | -0.0277 | -0.0007 | 0.0034 | 0.0094 | -0.0614 | 0.0192 | 0.0093 | -0.0229 | 0.0081 | 0.0332 | -0.0236
12 | CC1(C)CCC(CN2CCN(c3ccc(C(=O)NS(=O)(=O)c4ccc(NCC5CCOCC5)c([N+](=O)[O-])c4)c(Oc4cnc5[nH]ccc5c4)c3)CC2)=C(c2ccc(Cl)cc2)C1 [Venetoclax] + COc1cc(Nc2ncc3c(n2)-c2ccc(Cl)cc2C(c2c(F)cccc2OC)=NC3)ccc1C(=O)O [Alisertib] (first compound max 1 µM, 7x7, partner max 10 µM) | 1 | 0.341 | 0.416 | 0.28 | 0.0448 | -0.0062 | -0.034 | -0.0548 | -0.0323 | -0.0455 | 0.0423 | -0.0222 | -0.0167 | 0.146 | -0.0656 | 0.0244 | -0.0425 | -0.03 | 0.0993 | 0.149
13 | CC1(C)CCC(CN2CCN(c3ccc(C(=O)NS(=O)(=O)c4ccc(NCC5CCOCC5)c([N+](=O)[O-])c4)c(Oc4cnc5[nH]ccc5c4)c3)CC2)=C(c2ccc(Cl)cc2)C1 [Venetoclax] + Cc1cc2ncnn2cc1Nc1ncc2c(n1)n(C1CCOCC1)c(=O)n2C [AZD7648] (first compound max 1 µM, 7x7, partner max 10 µM) | 0.808 | 0.151 | 0.509 | 0.195 | -0.0033 | -0.0396 | -0.0106 | -0.0367 | 0.0066 | -0.103 | -0.0109 | -0.115 | -0.0098 | -0.0227 | -0.0113 | -0.0115 | -0.0196 | 0.0028 | 0.0551 | -0.0013
